Data on one molecule can be found in patent US20230078089A1, “Regulating Activation of Fibroblasts to Prevent Fibrosis” (THE J. DAVID GLADSTONE INSTITUTES, A TESTAMENTARY TRUST …, priority 2020, published 2023).

One test concerns isolated adult CMs. In words: bulk RNA-Seq of isolated adult cardiomyocytes from TAC mice. It counts as in vivo, mouse. On the procedure:
Cell isolation from mouse hearts was performed as described by Li et al. (J. Vis. Exp. (2014)) with modifications. Briefly, after proper anesthesia level was reached, thoracotomy was performed, and mouse heart was isolated. The isolated heart was cannulated and perfused with perfusion buffer (120.4 mM NaCl, 14.7 mM KCl, 0.6 mM KH2PO4, 0.6 mM Na2HPO4, 1.2 mM MgSO4, 10 mM Na-HEPES, 4.6 mM NaHCO3, 30 mM taurine, 10 mM 2,3-butanedione monoxime, and 5.5 mM glucose, pH 7.0) in a Langendorff perfusion system (Radnoti 120108EZ) for 5-10 minutes at 37° C. The cannulated heart was then digested by digestion buffer (perfusion buffer with 300 units/mL collagenase II (Worthington Biochemical) and 50 μM CaCl2)) for about 10 min at 37° C. […] 30 k cells were counted with trypan blue using a hemocytometer and then used for subsequent 10× Genomics Chromium single cell RNAseq preparation. […] Nuclei were then counted with DAPI using a hemocytometer and finally 30 k non-CM nuclei used for subsequent 10× Genomics Chromium single cell ATACseq preparation. […]
Total RNA from CMs was extracted using miRNeasy kit (Qiagen) according to the manufacturer's instructions and quantified with Nanodrop (Thermo scientific). […] Reads were mapped to the mm10 reference mouse genome using STAR (v 2.7.3a) and assigned to Ensembl genes. […]

In test [1] the test system is non-CM compartment of mouse hearts. Briefly: single cell RNA sequencing of non-CM heart cells from TAC mice. It counts as in vivo. How it is done: (§1) Cell isolation from mouse hearts was performed as described by Li et al. (J. Vis. Exp. (2014)) with modifications. Briefly, after proper anesthesia level was reached, thoracotomy was performed, and mouse heart was isolated. The isolated heart was cannulated and perfused with perfusion buffer (120.4 mM NaCl, 14.7 mM KCl, 0.6 mM KH2PO4, 0.6 mM Na2HPO4, 1.2 mM MgSO4, 10 mM Na-HEPES, 4.6 mM NaHCO3, 30 mM taurine, 10 mM 2,3-butanedione monoxime, and 5.5 mM glucose, pH 7.0) in a Langendorff perfusion system (Radnoti 120108EZ) for 5-10 minutes at 37° C. The cannulated heart was then digested by digestion buffer (perfusion buffer with 300 units/mL collagenase II (Worthington Biochemical) and 50 μM CaCl2)) for about 10 min at 37° C. At the end of digestion, the atria and great vessels were removed, and the ventricular tissue was transferred to and gently teased into small pieces in stop buffer (perfusion buffer with 10% fetal bovine serum) at 37° C. After gently pipetting, cell suspension was passed through a 250 uM strainer in a falcon tube and then at 30×g for 3 minutes at room temperature (RT). Then, the supernatant—containing most of the non-cardiomyocytes (CMs)—was divided from the pellet (containing the CM fraction). The non-CM fraction was centrifuged again at 30×g for 3 minutes at RT and the supernatant kept. The supernatant was then filtered with a cell strainer (70 um) and finally centrifuged at 400×g for 3 minutes at RT for eliminating debris. The non-CM pellet was finally resuspended in 1 mL cold PBS 0.5% BSA. 30 k cells were counted with trypan blue using a hemocytometer and then used for subsequent 10× Genomics Chromium single cell RNAseq preparation. For single cell ATAC, 500 k isolated and purified non-CMs were resuspended in […] lysis buffer (Tris-HCl 10 mM pH 7.4, NaCl 10 mM, MgCl2 3 mM, Tween-20 0.1%, P40 0.1%, Digitonin 0.01%, BSA 1% in Nuclease-free water), pipetted 10 times and kept on ice for 5 minutes. Nuclei were then washed 1 mL 1× PBS with 1% BSA and then […] at 4° C. The nuclei pellet was resuspended in 1 mL 1× PBS with 1% BSA and filtered with a 10 uM strainer (pluriSelect #43-50010-00). Nuclei were then counted with DAPI using a hemocytometer and finally 30 k non-CM nuclei used for subsequent 10× Genomics Chromium single cell ATACseq preparation. The CM-fraction was, after the first centrifugation, centrifugated again at 30×g for 3 minutes at RT in stopping buffer and the supernatant was discarded. The CM pellet was finally centrifuged at 400×g for 3 minutes in stopping buffer at RT and after discarding the supernatant, the cell pellet was lysed in Qiazol (miRNeasy kit—Qiagen) for subsequent RNA extraction.
Single-cell droplet libraries from the non-CM cell suspension (2× Sham, 2× TAC-Veh, 2× TAC-JQ1 and 2× TAC-JQ1 withdrawn) (FIG. 2C) were generated in the 10× Genomics Chromium controller according to the manufacturer's instructions in the Chromium Single Cell 3′ Reagent Kit v.2 User Guide. Additional components used for library preparation include the Chromium Single Cell 3′ Library and Gel Bead Kit v.2 (PN-120237) and the Chromium Single Cell 3′ Chip kit v.2 (PN-120236). Libraries were prepared according to the manufacturer's instructions using the Chromium Single Cell 3′ Library and Gel Bead Kit v.2(PN-120237) and Chromium 7 Multiplex Kit (PN-120262). Final libraries were sequenced on the NextSeq 500 (Illumina) for a quality control run and then on the NovaSeq (Illumina) for deeper sequencing. All the 8 samples were pooled and sequenced in one single lane. Sequencing parameters were selected according to the Chromium Single Cell v.2 specifications. All libraries were sequenced to a mean read depth of at least 50,000 total aligned reads per cell. Raw sequencing reads were processed using the Cell Ranger v.2.2.0 pipeline from 10× Genomics. […]

The test system of test [2] is distal elements (incl. Meox1 enhancer) in fibroblasts, myeloid and endothelial cells. In words: single cell ATAC sequencing of non-CM heart nuclei from TAC mice, chromatin accessibility of distal elements. It counts as in vivo, mouse. On the procedure: as §1
After successful nuclei isolation, nuclei were then processed according to the 10× Genomics Single Cell ATAC kit v1.0 (PN-1000110) by first incubating with Tn5 Transposase for 1 hour, followed by GEM generation and barcode amplification using the 10× Genomics Chromium controller according to the manufacturer's instructions. Additional components used for library preparation include the Chromium Chip E Single Cell ATAC kit (PN-1000082) and Chromium i7 Multiplex Kit N, Set A primers (PN-1000084). Final libraries were sequenced on the NextSeq 500 (Illumina) for a quality control run and then on the NovaSeq (Illumina) for deeper sequencing. All the 8 samples (2× Sham, 2× TAC-Veh, 2× TAC-JQ1 and 2× TAC-JQ1 withdrawn) (FIG. 2C) were pooled and sequenced in one NovaSeq single lane. Sequencing parameters were selected according to the Chromium Single Cell ATAC v1.0 specifications. All libraries were sequenced to a median read depth of at least 2,500 fragments/nuclei. Raw sequencing reads were processed using the Cell Ranger ATAC v1.0 pipeline from 10× Genomics. In brief, reads were demultiplexed and aligned to the mouse mm10 genome. As a test of sample quality, a minimum of 70% of fragments overlapped targeted regions as defined by CellRanger. […]

The next test deals with Meox1 expression. Briefly: Meox1 expression by qPCR in TGF-β-treated cultured cardiac fibroblasts. The test is classed as cell-based, mouse. The following applies: TGF-β1 10 ng/ml, JQ1 500 nM. On the procedure: JQ1 was synthesized and purified in the laboratory of Jun Qi (Dana-Farber Cancer Institute), as described by Filippakopoulos et al. (Nature 468, 1067-1073 (2010)). For in vivo experiments, a stock solution [50 mg/ml JQ1 in dimethyl sulfoxide (DMSO)] was diluted to a working concentration of 5 mg/ml in an aqueous carrier (10% hydroxypropyl b-cyclodextrin; Sigma C0926) using vigorous vortexing. Mice were injected at a dose of 50 mg/kg given intraperitoneally once daily. Vehicle control was an equal amount of DMSO dissolved in 10% hydroxypropyl b-cyclodextrin carrier solution. All solutions were prepared and administered using sterile technique. For in vitro experiments, JQ1 was dissolved in DMSO and administered to cells at 500 nM final concentration using an equal volume of DMSO as control.
A Tcf21MCM mouse (Acharya et al., Genesis 49, 870-877 (2011)) was crossed with a Rosa26-Ai6 mouse (Jackson Laboratory stock #007906) to generate a Tcf21^MCM/+; Rosa26^Ai6/+ mouse. At 10 weeks of age, intraperitoneal injection of Tamoxifen (75 mg tamoxifen/kg) was done for 5 days (once a day). […] As primary cells only undergo a pre-determined and finite number of cell divisions in culture, and then enter a state of replicative senescence, the inventors employed a widely used method for immortalizing mammalian cells in culture based on Simian virus 40 (SV40) T antigen expression. […]
Quantitative RT-PCR. […]
For orientation: Real-time PCR tracks product formation cycle by cycle.

In test [3] the test system is MEOX1 expression in human fibroblasts from lung. In words: MEOX1 expression by qPCR in TGFβ-treated human lung fibroblasts. The test is classed as cell-based. The conditions noted are these: TGF-β1 10 ng/ml, JQ1 0.5 uM. On the procedure:
(§2) Human fibroblasts from lung (ATCC, #CRL-4058), liver (CELL APPLICATIONS INC, #712-05f) and kidney (Cell Biologics, #H-6016) were passaged and grown like the mouse cardiac fibroblasts (see “Generation of cardiac fibroblast immortalized cell line, culture condition and TGFβ stimulation” section for more details”). In brief, human fibroblasts were seeded at 1×10^5/well of 6 well plate at day 1. On day 2, the media was changed to the same basal media with 0.5% FBS. On the day 3, TGF-β1 (Peprotech #100-21C) was added into the media at a concentration of 10 ng/ml. JQ1 was added at a final concentration of 0.5 uM. Cells were collected on day 5 for RT-qPCR and gene expression analysis.

Test [4] has as its system MEOX1 expression in human fibroblasts from liver. Briefly: MEOX1 expression by qPCR in TGFβ-treated human liver fibroblasts. The test is classed as cell-based. The following applies: TGF-β1 10 ng/ml, JQ1 0.5 uM. How it is done:
as §2

The subject of test [5] is MEOX1 expression in human fibroblasts from kidney. In words: MEOX1 expression by qPCR in TGFβ-treated human kidney fibroblasts. The test is classed as cell-based. The following applies: TGF-β1 10 ng/ml, JQ1 0.5 uM. On the procedure:
as §2

In test [6] the test system is BET family of bromodomain proteins. The conditions noted are these: background description; cited from earlier work.
Test [7] has as its system several rodent models of HF. The following applies: background description; cited from earlier work.

For `Cc1sc2c(c1C)C(c1ccc(Cl)cc1)=NC(CC(=O)OC(C)(C)C)c1nnc(C)n1-2` (centres unmarked) [JQ1], the “overlap of CM transcriptome effects with transcriptomic signature of whole LV tissue” value in the test on isolated adult CMs was less than 3%. Besides, in the test on isolated adult CMs (compared to published signature of whole LV tissue), the “effects on the transcriptome of isolated adult CMs” value is “modest”. In addition, in [1] (TAC JQ1-treated), the “fibroblast cell state (scRNAseq clustering)” value is on record as “dramatic reversion of this cell state to one that closely approached the Sham state” and the “myofibroblast cell state (Postn marker)” value is given as “shifted the myoFB cell state back toward a Sham-like state”. In addition, in test [1] (TAC JQ1 withdrawn), the “Meox1 expression in MyoFBs (scRNAseq) after withdrawal” value is “robust re-induction”, the “fibroblast cell state (scRNAseq clustering) after withdrawal” value is “shift of the FB population back to a TAC-like stressed state” and the “myofibroblast cell state (Postn marker) after withdrawal” value was “reverts these cells back to myoFBs”. For the same molecule, the “Meox1 expression in MyoFBs (scRNAseq)” value in test [1] (TAC, BET inhibition with JQ1) was “abolished”. The “transcriptome of endothelial and myeloid compartments” value in [1] (TAC, JQ1 exposure) is listed as “dynamic transcriptomic shifts”. Besides, the “accessibility of fibroblast regions that opened from Sham to TAC (Cluster 9)” value in test [2] (fibroblasts) is on record as “insensitive”. The “sensitivity of the enhancer downstream of Meox1 to stress and JQ1 exposure” value in test [2] (fibroblasts, but not myeloid and endothelial cells) is listed as “extremely sensitive”. In test [2] (fibroblasts, JQ1 treatment), the “accessibility of the 10 peaks of the Meox1 enhancer” value is “closed with JQ1 treatment back to a Sham level” and the “increase in chromatin accessibility after TAC in fibroblasts” value was “reversibly attenuated”. For the same molecule, in [2] (fibroblasts, JQ1 withdrawal), the “accessibility of dynamic fibroblast distal elements (Cluster 2) after withdrawal” value was “robustly re-accessible”. In addition, in test [2] (fibroblasts, JQ1 withdrawn), the “accessibility of the 10 peaks of the Meox1 enhancer after withdrawal” value is “re-opened”. In addition, the “accessibility of dynamic fibroblast distal elements (Cluster 2)” value in test [2] (fibroblasts, closed in Sham, opened in TAC, JQ1 treatment) was “closed by JQ1”. For the same molecule, the “attenuation of chromatin accessibility after TAC in myeloid and endothelial cells” value in test [2] (myeloid and endothelial cells, JQ1 treatment) is on record as “less evident”. In the test with Meox1 expression, the “TGF-β-induced Meox1 upregulation” value was “suppressed”. The “TGFβ-induced MEOX1 expression” value in [3] is given as “suppressed”. In addition, the “TGFβ-induced MEOX1 expression” value in test [4] was “suppressed”. For the same molecule, the “TGFβ-induced MEOX1 expression” value in [5] was “suppressed”. In addition, the “potency as BET bromodomain inhibitor” value in test [6] is “potent inhibitor”. Moreover, in test [7], the “prevention and treatment of heart failure” value is “can prevent and treat HF”.
